Results taken from patent US8633184B2, “Benzoazepin-oxy-acetic acid derivatives as PPAR-delta agonists used for the increase of HDL-C, lower LDL-C and lower cholesterol” (Janssen Pharmaceutica N.V., priority 2006, dated 2014).
Where “and” joins values, the source holds several entries; their conditions need not be identical. Equal entries are not always repeated.

Tests used:
Format in all cases: cell-based
Details in all cases: 18-24 hrs
[1] = target: T1, PPARδ (Homo sapiens, UniProt Q03181); assay: Transfection assay, GAL4-PPARδ LBD luciferase reporter in HEK293 cells
T1 construct: expressed in transfected cells; host or cells: HEK293
T1 sequence (Q03181 211-439 limits assumed): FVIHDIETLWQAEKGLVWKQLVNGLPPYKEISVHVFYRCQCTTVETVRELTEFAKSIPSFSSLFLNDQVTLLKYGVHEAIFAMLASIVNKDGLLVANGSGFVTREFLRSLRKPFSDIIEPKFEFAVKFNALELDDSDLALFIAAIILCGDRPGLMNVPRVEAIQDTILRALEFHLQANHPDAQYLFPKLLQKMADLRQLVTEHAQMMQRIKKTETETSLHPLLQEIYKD
Protocol: (§1) HEK293 cells were grown in DMEM/F12 medium supplemented with 10% FBS and glutamine (Invitrogen) and incubated in a 5% CO2 incubator at 37° C. The cells were co-transfected using DMRIE-C reagent (Invitrogen) in serum free medium (Opti-MEM, Invitrogen) with two mammalian expression plasmids, one containing the DNA sequence coding for the ligand binding domains of either PPARα, γ or δ fused to the yeast GAL4 DNA binding domain and the other containing the promoter sequence of the yeast GAL4 (UAS) fused to the firefly luciferase cDNA reporter. The next day, the medium was changed to DMEM/F12 medium supplemented with 5% charcoal treated serum (Hyclone) and glutamine. After 6 hrs the cells were trypsinized and seeded at a density of 50,000 cells/well into 96 well plates and incubated overnight as above. The cells were then treated with test compounds or vehicle and incubated for 18-24 hrs as above. Luciferase reporter activity was measured using the Steady-Glo Luciferase Assay Kit from Promega. DMRIE-C Reagent was purchased from GIBCO Cat. No. 10459-014. OPTI-MEM I Reduced Serum Medium was purchased from GIBCO (Cat. No. 31985). Steady-Glo Luciferase Assay Kit was purchased from Promega (Part #E254B).
(§2) A variety of example compounds have been made and tested, with a range of in vitro results. Below, in Table 2, are representative compounds and data; in some cases, where multiple EC50's are shown, multiple measurements were taken. Naturally, different compounds in Formula (I) may have not activities identical to any one compound below.

[2] = target: T2, PPARγ (Homo sapiens, UniProt P37231); assay: Transfection assay, GAL4-PPARγ LBD luciferase reporter in HEK293 cells
T2 construct: expressed in transfected cells; host or cells: HEK293
T2 sequence (P37231 238-503 limits assumed): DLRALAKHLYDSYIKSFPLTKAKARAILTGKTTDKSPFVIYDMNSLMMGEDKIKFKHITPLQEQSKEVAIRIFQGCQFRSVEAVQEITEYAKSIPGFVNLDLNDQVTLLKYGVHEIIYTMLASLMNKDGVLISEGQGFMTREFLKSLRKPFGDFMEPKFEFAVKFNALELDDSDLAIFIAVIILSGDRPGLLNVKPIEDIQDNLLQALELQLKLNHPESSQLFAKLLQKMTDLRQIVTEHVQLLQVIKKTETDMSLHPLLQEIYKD
Protocol: as §1, §2

[3] = target: T3, PPARα (Homo sapiens, UniProt Q07869); assay: Transfection assay, GAL4-PPARα LBD luciferase reporter in HEK293 cells
T3 construct: expressed in transfected cells; host or cells: HEK293
T3 sequence (Q07869 239-466 limits assumed): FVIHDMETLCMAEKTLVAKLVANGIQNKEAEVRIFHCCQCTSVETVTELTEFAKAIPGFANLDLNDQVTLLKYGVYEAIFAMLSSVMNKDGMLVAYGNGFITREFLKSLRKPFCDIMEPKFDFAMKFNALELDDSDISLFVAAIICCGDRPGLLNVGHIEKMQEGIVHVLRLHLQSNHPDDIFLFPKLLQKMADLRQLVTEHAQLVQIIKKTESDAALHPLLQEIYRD
Protocol: as §1, §2

SMILES	EC50 [1]	EC50 [2]	EC50 [3]
CC(c1ccc(-c2ccc(C(F)(F)F)cc2)o1)N1CCc2ccc(OCC(=O)O)cc2CC1 (single isomer, unassigned) [28b]	5.4 nM and 9.8 nM	> 3000 nM	> 3000 nM
O=C(O)COc1ccc2c(c1)CCN(Cc1ccc(-c3ccc(Cl)cc3Cl)s1)CC2 [compound 31]	237 nM	> 3000 nM	> 3000 nM
O=C(O)COc1ccc2c(c1)CCN(Cc1cccc(-c3ccc(C(F)(F)F)cc3)c1)CC2 [compound 47]	> 3000 nM	> 3000 nM	> 3000 nM
O=C(O)COc1ccc2c(c1)CCN(Cc1ccc(-c3ccc(OC(F)(F)F)cc3)o1)CC2 [compound 34]	373 nM	> 3000 nM	> 3000 nM
O=C(O)C1(Oc2ccc3c(c2)CCN(Cc2ccc(-c4ccc(C(F)(F)F)cc4)s2)CC3)CC1 [compound 37]	5.3 nM	> 3000 nM	> 3000 nM
O=C(O)COc1ccc2c(c1)CCN(Cc1ccnc(-c3ccc(C(F)(F)F)cc3)n1)CC2 [compound 41]	> 1000 nM	> 3000 nM	> 3000 nM
Cc1c(-c2ccc(C(F)(F)F)cc2)csc1CN1CCc2ccc(OCC(=O)O)cc2CC1 [compound 15]	104 nM	> 3000 nM	> 3000 nM
CC(c1ccc(-c2ccc(C(F)(F)F)cc2)s1)N1CCc2ccc(OCC(=O)O)cc2CC1 (racemic) [compound 27]	< 3 nM and 1.4 nM	> 3000 nM	> 3000 nM
Cc1cc(-c2ccc(C(F)(F)F)cc2)sc1CN1CCc2ccc(OCC(=O)O)cc2CC1 [compound 13]	174 nM and 193 nM	> 3000 nM	> 3000 nM
Cc1nc(-c2ccc(C(F)(F)F)cc2)oc1CN1CCc2ccc(OCC(=O)O)cc2CC1 [compound 18]	174 nM	> 3000 nM	> 3000 nM
CC(c1ccc(-c2ccc(C(F)(F)F)cc2)o1)N1CCc2ccc(OCC(=O)O)cc2CC1 (stereo not drawn) [compound 28]	< 3 nM	> 3000 nM	> 3000 nM
Cc1nc(-c2ccc(C(F)(F)F)cc2)sc1CN1CCc2ccc(OCC(=O)O)cc2CC1 [compound 5]	51.6 nM	> 3000 nM	> 3000 nM

Further lines, results first:

EC50 [1]	EC50 [2]	EC50 [3]	SMILES
53 nM and 87.7 nM	> 3000 nM	> 3000 nM	CC(C)(Oc1ccc2c(c1)CCN(Cc1ccc(-c3ccc(C(F)(F)F)cc3)o1)CC2)C(=O)O [compound 10]
11 nM and 10.8 nM	> 3000 nM	> 1000 nM	CC1CN(Cc2ccc(-c3ccc(C(F)(F)F)cc3)s2)CCc2ccc(OCC(=O)O)cc21 (stereo not drawn) [compound 25]
143 nM	> 3000 nM	> 3000 nM	O=C(O)COc1ccc2c(c1)CCN(Cc1nc(-c3ccc(C(F)(F)F)cc3)ns1)CC2 [compound 3]
> 3000 nM	> 3000 nM	> 3000 nM	O=C(O)COc1ccc2c(c1)CCN(CCc1ccc(-c3ccc(C(F)(F)F)cc3)s1)CC2 [compound 22]
> 3000 nM	> 3000 nM	> 3000 nM	O=C(O)COc1ccc2c(c1)CCN(Cc1cccc(-c3ccc(C(F)(F)F)cc3)n1)CC2 [compound 43]
109 nM and 70.2 nM	> 3000 nM	> 3000 nM	O=C(O)COc1ccc2c(c1)CCN(Cc1cc(-c3ccc(C(F)(F)F)cc3)cs1)CC2 [compound 23]
162 nM	> 3000 nM	> 3000 nM	CC(C)(Oc1ccc2c(c1)CCN(Cc1cc(-c3ccc(C(F)(F)F)cc3)ns1)CC2)C(=O)O [compound 2]
0.92 nM	> 1000 nM	> 3000 nM	CC(c1ccc(-c2ccc(C(F)(F)F)cc2)s1)N1CCc2ccc(OCC(=O)O)cc2CC1 (single isomer, unassigned) [27a]
157 nM	> 3000 nM	> 3000 nM	O=C(O)COc1ccc2c(c1)CCN(Cc1ccc(-c3ccc(OC(F)(F)F)cc3)s1)CC2 [compound 32]
12 nM	> 1000 nM	> 1000 nM	O=C(O)C1(Oc2ccc3c(c2)CCN(Cc2cnc(-c4ccc(C(F)(F)F)cc4)s2)CC3)CC1 [compound 39]
422 nM	> 3000 nM	> 3000 nM	CC(C)(Oc1ccc2c(c1)CCN(Cc1cnn(-c3ccc(C(F)(F)F)cc3)c1)CC2)C(=O)O [compound 21]
< 3 nM	622 nM	> 3000 nM	CC(c1cnc(-c2ccc(C(F)(F)F)cc2)s1)N1CCc2ccc(OCC(=O)O)cc2CC1 (stereo not drawn) [compound 29]
> 1000 nM	> 3000 nM	> 3000 nM	O=C(O)COc1ccc2c(c1)CCN(CCc1ccc(-c3ccc(C(F)(F)F)cc3)o1)CC2 [compound 45]
243 nM	> 3000 nM	> 1000 nM	Cc1nc(-c2ccc(C(F)(F)F)cc2)sc1CN1CCc2ccc(OC(C)(C)C(=O)O)cc2CC1 [compound 6]
> 1000 nM	> 3000 nM	> 3000 nM	O=C(O)COc1ccc2c(c1)CCN(Cc1ccc(-c3ccc(C(F)(F)F)cc3)cc1)CC2 [compound 40]
29.2 nM	> 3000 nM	> 3000 nM	Cc1cc(-c2ccc(C(F)(F)F)cc2)oc1CN1CCc2ccc(OCC(=O)O)cc2CC1 [compound 36]
